This is an account of results in patent US8741905B2, “Compounds and methods for treating autoimmune diseases” (The Broad Institute, Inc., priority 2010, dated 2014).

Assay [1] has as its system STAT1. As to the kind of experiment: GAS reporter assay (cytokine-induced STAT1 reporter gene activity). The format is cell-based. As to conditions: FIG. 7. The method, then: INS-1E cells were transfected with plasmids (GAS reporter assay kit) using DharmaFECT reagent according to the manufacturer's protocol (SABiosciences) in white optical 384-well plates (Corning Life Sciences). After overnight incubation, medium was removed and 50 μL RPMI containing the treated compound, 1% FBS and a combination of cytokines (10 ng/mL IL-1β, 50 ng/mL IFN-γ, 25 ng/mL TNF-α) was added to every well. After treatment with cytokines and compounds for 18 hr, luminescence was measure using Dual-Glo according to the manufacturer's protocol (Promega).
(In general: In a reporter assay the amount or activity of a reporter protein is the signal.)

Assay [2] concerns Usp9x. As to the kind of experiment: Low-throughput compound pull-down and Western blot. As to conditions: FIG. 13, Western blot. The format is binding. Background: Immunoblotting shows a protein as a band on a membrane.
Assay [3] has as its system STAT1. As to the kind of experiment: STAT1 phosphorylation. Format: cell-based. As to conditions: FIG. 8. As for the experimental part: siRNAs (100 nM) were transfected into INS-1E cells (5,000 cells/well in a 384-well plate) using DharmaFECT reagent. Transfected cells were cultured for 72 hr, then collected for Western blot analysis and cell-based assays. For Western blotting, cells were lysed in RIPA buffer. Total protein was separated by 4-12% SDS-PAGE and transferred to a PVDF membrane. Blots were developed using the chemiluminescence detection system SuperSignal (Thermo Fisher Scientific) and light emission was captured using an Imaging Station 4000MM (Carestream).

Assay [4] deals with T1, Usp9x (Homo sapiens, UniProt Q93008).
T1 construct: made in house
As to the kind of experiment: Usp9x thermal shift assay. As to conditions: FIG. 14, purified Usp9x, compared with WP1130. Format: binding. The method, then:
For each purification, fifty 25-cm dishes of confluent HEK-293 cell lines stably expressing wild-type USP-9X (provided by Dr. Dario Alessi, University of Dundee, Scotland) were employed. Cells were washed twice with ice-cold PBS and lysed in 1 ml of ice-cold lysis buffer. The combined lysates were centrifuged at 26000 g for 30 min at 4° C. and the supernatant incubated with 0.2 ml of rabbit IgG-agarose beads (Sigma) for 1 h at 4° C. The IgG-agarose was washed extensively with lysis buffer containing 0.15 M NaCl, then with several washes in buffer B prior to incubation with 0.250 ml of buffer B containing 0.1 mg of TEV protease (Invitrogen). After 3 h at 4° C.˜70-90% of the TAP-tagged protein had been cleaved from the IgG-agarose and the eluted protein was incubated with 0.1 ml of rabbit calmodulin-Sepharose (Roche) equilibrated in buffer C. After 1 h at 4° C., the calmodulin-Sepharose was washed with buffer C. To elute the protein, the calmodulin-Sepharose was then incubated with 0.1 ml of buffer D for 10 min at 4° C. The eluate was removed from the beads and the elution repeated two or three times. To remove the NaCl present in the buffer containing the eluate protein, the eluates were centrifuged at 1500 g for 1 min at 4° C. in protein desalting spin columns. […]

For assay [5], the system named is STAT1. As to the kind of experiment: Nuclear STAT1 translocation. As to conditions: FIG. 9. The format is cell-based.
Assay [6] deals with INS-1E cells. The assay can be described thus: Cellular ATP levels (CellTiter-Glo) in cytokine-treated INS-1E cells; suppression of cytokine-induced beta-cell apoptosis. Format: cell-based, rat. As to conditions: Rattus norvegicus. As for the experimental part:
The compounds were analyzed for activity utilizing methods described in Chou et al. (ACS Chem. Biol. 2010 Aug. 20; 5(8):729-34).
INS-1E cells were seeded at 10,000 cells per well using a Multidrop Combi (Thermo Labsystems) in white optical 384-well plates (Corning Life Sciences). After overnight incubation, medium was removed and 50 μL of RPMI containing 1% FBS and a combination of cytokines (10 ng mL-^1 IL-1β, 50 ng mL^−1 IFN-γ, 25 ngmL^−1 TNF-α) was added to every well. Using libraries of compounds dissolved in DMSO and a CyBi-Well pin-transfer robot (CyBio Corp.), 0.1 μL of each compound was added. After 48 h, medium was removed and 20 μL of CellTiter-Glo reagent was added. Luminescence was measured after 10 min of incubation using an EnVision plate reader (PerkinElmer).
Instrument output files were processed using Pipeline Pilot (Accelrys) and input to MATLAB (The MathWorks) for data normalization. Compound performance scores relative to a distribution of mock-treated (DMSO) wells were calculated using a revised version of the scoring system underlying ChemBank. (Seiler et al., Nucleic Acids Res. 36, D351-359, 2008). The role of replicate treatments was further developed as follows: first, mock-treatment distributions were modeled using all mock-treated wells measured on a single day, regardless of their nominal replicate; second, per-compound scores weighted each in-plate background-subtracted measurement by the uncertainty in that measurement, using the method of maximum likelihood. The uncertainty in a single background-subtracted measurement was estimated using the number of mock-treated wells on the plate and, as a measure of the assay noise, the standard deviation of the per-day mock-treatment distribution. The signal, a weighted average of differences, was scaled by the noise, the standard deviation of the mock treatment distribution.
INS-1E cells were seeded at 10,000 cells/well using a Multidrop Combi (Thermo Labsystems) in white optical 384-well plates (Corning Life Sciences). After overnight incubation, medium was removed and 50 μL RPMI containing the treated compound, 1% FBS and a combination of cytokines (10 ng/mL IL-1β, 50 ng/mL IFN-γ, 25 ng/mL TNF-α) was added to every well. After incubation for 48 hr, medium was removed and 20 μL CellTiter-Glo reagent was added. Luminescence was measured after 10-min incubation using an EnVision plate reader (PerkinElmer).
On the technique in general: Cellular ATP, detected with luciferase, serves as a proxy for viable cell number.

Assay [7] has as its system INS-1E cells. As to the kind of experiment: Caspase-3 activity assay (Caspase-Glo 3/7) in cytokine-treated INS-1E cells. The format is cell-based, rat. As to conditions: cytokines. The method, then:
INS-1E cells were seeded at 5,000 cells per well in white optical 384-well plates and treated as described for highthroughput screening. After treatment with cytokines and compounds for 48 h, medium was removed and 20 μL Caspase-Glo 3/7 reagent was added. Luminescence was measured after 2 h of incubation using an EnVision plate reader.

T1 sequence (Q93008 whole entry): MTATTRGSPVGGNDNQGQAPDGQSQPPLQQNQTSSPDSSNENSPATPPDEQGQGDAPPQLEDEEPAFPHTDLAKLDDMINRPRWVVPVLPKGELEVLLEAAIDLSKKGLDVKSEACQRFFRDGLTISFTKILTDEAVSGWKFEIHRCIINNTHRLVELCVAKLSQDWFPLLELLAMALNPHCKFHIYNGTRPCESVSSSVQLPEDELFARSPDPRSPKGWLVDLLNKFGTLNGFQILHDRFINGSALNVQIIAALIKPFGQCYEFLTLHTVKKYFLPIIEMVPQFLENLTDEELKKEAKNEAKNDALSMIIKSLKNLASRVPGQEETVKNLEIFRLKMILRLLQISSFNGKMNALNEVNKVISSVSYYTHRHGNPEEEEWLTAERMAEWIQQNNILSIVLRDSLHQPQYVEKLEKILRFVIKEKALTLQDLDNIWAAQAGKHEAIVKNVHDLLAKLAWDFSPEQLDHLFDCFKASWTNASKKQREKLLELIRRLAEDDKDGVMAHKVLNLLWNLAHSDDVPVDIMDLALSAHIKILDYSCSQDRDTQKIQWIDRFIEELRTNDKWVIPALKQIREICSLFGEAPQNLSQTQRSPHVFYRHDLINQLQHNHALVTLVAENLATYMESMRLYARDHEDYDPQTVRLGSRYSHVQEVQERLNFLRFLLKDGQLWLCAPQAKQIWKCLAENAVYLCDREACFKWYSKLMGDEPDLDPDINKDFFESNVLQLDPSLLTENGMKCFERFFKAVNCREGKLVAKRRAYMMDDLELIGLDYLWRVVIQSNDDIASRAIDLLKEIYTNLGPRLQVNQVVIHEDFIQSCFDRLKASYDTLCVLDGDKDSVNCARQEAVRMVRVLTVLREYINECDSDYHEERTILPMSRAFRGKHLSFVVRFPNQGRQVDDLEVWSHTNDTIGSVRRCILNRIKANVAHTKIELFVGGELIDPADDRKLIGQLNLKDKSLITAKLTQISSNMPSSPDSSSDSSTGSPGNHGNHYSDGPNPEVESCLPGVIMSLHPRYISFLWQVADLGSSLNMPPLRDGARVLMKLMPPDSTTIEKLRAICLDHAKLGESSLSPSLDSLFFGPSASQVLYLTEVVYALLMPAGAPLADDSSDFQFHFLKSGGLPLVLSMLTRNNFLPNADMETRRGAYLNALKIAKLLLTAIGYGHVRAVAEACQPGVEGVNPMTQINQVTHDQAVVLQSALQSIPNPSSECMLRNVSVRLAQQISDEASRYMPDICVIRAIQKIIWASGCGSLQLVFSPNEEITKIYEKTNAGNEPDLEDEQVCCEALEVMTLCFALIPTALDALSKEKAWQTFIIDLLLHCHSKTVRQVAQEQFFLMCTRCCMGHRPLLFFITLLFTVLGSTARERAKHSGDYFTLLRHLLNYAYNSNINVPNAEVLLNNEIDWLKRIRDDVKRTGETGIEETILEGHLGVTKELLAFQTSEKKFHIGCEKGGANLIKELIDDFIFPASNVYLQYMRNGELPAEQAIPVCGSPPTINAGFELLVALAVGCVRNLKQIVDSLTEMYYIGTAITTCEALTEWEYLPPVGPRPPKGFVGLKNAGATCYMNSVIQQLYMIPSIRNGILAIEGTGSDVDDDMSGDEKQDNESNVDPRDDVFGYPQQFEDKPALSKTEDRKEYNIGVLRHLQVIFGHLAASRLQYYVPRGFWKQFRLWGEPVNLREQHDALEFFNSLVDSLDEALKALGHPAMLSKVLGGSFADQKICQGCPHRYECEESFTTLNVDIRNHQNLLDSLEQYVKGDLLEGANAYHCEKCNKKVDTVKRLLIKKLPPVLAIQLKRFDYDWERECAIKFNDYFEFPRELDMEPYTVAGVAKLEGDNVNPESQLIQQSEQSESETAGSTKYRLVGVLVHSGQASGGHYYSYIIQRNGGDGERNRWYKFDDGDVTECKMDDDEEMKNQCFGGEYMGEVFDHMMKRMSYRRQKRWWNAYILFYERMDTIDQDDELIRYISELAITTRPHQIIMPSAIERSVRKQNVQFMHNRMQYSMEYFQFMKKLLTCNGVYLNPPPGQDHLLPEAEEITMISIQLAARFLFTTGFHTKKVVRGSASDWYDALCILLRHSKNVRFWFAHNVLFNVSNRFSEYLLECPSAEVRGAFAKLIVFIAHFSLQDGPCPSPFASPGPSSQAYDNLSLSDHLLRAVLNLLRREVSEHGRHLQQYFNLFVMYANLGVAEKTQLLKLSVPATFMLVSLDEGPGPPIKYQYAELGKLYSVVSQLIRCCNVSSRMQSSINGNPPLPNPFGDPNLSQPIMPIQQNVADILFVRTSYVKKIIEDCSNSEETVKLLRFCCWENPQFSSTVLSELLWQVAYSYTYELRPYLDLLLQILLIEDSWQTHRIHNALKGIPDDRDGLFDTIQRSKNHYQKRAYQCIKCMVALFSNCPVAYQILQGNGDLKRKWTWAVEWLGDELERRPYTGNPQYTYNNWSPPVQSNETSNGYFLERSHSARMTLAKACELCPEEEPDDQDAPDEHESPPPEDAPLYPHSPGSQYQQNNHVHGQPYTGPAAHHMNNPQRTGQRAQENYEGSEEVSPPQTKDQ

What is called EC50 is the concentration needed to bring the measured effect to its halfway point. For orientation: IC50 means the point on the concentration scale where inhibition reaches its midpoint. As to `C[C@@H]1CN([C@@H](C)CO)C(=O)c2cccc(NC(=O)Nc3cccc4ccccc34)c2O[C@H]1CN(C)S(=O)(=O)c1ccc2c(c1)OCCO2` [Compound 21A, N-(((2R,3R)-5-((S)-1-Hydroxypropan-2-yl)-3-methyl-10-(3-(naphthalen-1-yl)ureido)-6-oxo-3,4,5,6-tetrahydro-2H-benzo[b][1,5]oxazocin-2-yl)methyl)-N-methyl-2,3-dihydrobenzo-[b][1,4]dioxine-6-sulfonamide], the “cytokine-induced STAT1 reporter gene activity” value in the assay on STAT1 [1] is on record as “inhibits cytokine-induced STAT1 reporter gene activity”. In the assay with Usp9x [2], the “protein isolated by compound pull-down” value is “Usp9x isolated”. Besides, the STAT1 phosphorylation result in the assay on STAT1 [3] is given as “Suppression of STAT1 phosphorylation”. Moreover, the Usp9x thermal shift entry on Usp9x [4] is recorded as “suggests binding”. The “nuclear STAT1 translocation” value with STAT1 [5] is reported as “Inhibition of nuclear STAT1 translocation”. In addition, the concentration for a half-maximal effect (EC50) with INS-1E cells [6] (INS-1E, assay not named, read-out: EC50) is 770 nM; in the assay with INS-1E cells [6] (INS-1E cells, cytokines IL-1β, IFN-γ, TNF-α, 48 h, CellTiter-Glo, read-out: CTG EC50 in HTS), over 100 nM; in the assay with INS-1E cells [7] (Rattus norvegicus, 48 h, Caspase-Glo 3/7), over 10000 nM. Moreover, the concentration for half-maximal inhibition (IC50) in the assay on INS-1E cells [6] (INS-1E, read-out: IC50, inhibition of cytokine-induced beta cell apoptosis) came out at 770 nM. In the assay with INS-1E cells [7], the “caspase-3/7 activity in INS-1E cells” value is reported as “decreased caspase-3/7 activity”.
